In series [1] the test system is scopolamine-induced amnesia of rats. In words: Effects on scopolamine-induced amnesia, passive avoidance task (oral administration). Format: in vivo, rat. The conditions noted are these: 60 min before trial, scopolamine hydrobromide 2 mg/kg i.p., latency 24 h after shock, male Sprague Dawley rats; for inhibition in vivo at 0.01 mg/kg / inhibition in vivo at 1 mg/kg: Rattus norvegicus, po, read-out: Inhibitory rate (%). The source says:
Male rats of the Strague Dawley strain at 8 weeks of age (260±2 g body weight) were used for evaluation through passive avoidance task. The apparatus of passive avoidance task comprises illuminated and dark chambers which are separated from each other by a wall with a door. Floors are constituted by grids made of stainless steel; only the grid in the dark chamber is furnished with wiring for electrification.
Effected on the first and second days of testing was preparative training; each rat was placed in the illuminated chamber and left for 3 minutes to habituate to the apparatus. On the third day of testing, the rats were individually placed in the illuminated chamber and after entering the dark chamber, the door was closed and the floor grid was electrified to deliver electric shock (100 V, 0.4 mA, a period of 0.8 sec). In order to induce amnesia, scopolamine hydrobromide (2 mg/kg) was intraperitoneally injected 20 minutes before the electric shock was delivered. Retention in memory on the electric shock was tested 24 hours later; more specifically, retention in passive avoidance was measured in terms of a time interval (latency) from placement of each rat in the illuminated chamber to its entry into the dark chamber. The latency over 300 seconds was recorded as 300 seconds. Respective test compounds were suspended in an aqueous solution of 1% carboxymethyl cellulose and orally administered at a dose of 0.01 or 1 mg/kg 60 minutes before the trial.
Antiamnesic effects of the test compounds were evaluated by inhibitory rate (%) which is calculated by the following formula:
[formula] wherein T stands for latency and SC, administration of scopolamine hydrobromide. Experimental results are shown in the following table in which, as to each of the test compounds, only the dose showing higher inhibitory rate was indicated.

Marks after values point to notes of the source that are not given here. A value given as a limit tells only on which side of the number the result lay.

In general, melting point refers to the temperature of the solid-liquid transition.

With `COc1cc2c(cc1OC)C(=O)C(CC1CCN(Cc3ccccc3)CC1)C2` (racemic) [compound C, (R,S)-1-benzyl-4-(5,6-dimethoxy-1-indanon-2-yl)-methylpiperidine, reference compound], the inhibition in vivo at 0.01 mg/kg in series [1] (dose 0.01 mg/kg p.o.) was 12.5%. For the same compound, in series [1] (dose 1 mg/kg p.o.), the inhibition in vivo at 1 mg/kg worked out at 24.7%. With `O=C1N=C2SC=CN2C1(Cc1ccc(F)cc1)Cc1ccc(F)cc1` [compound 1, 5,5-bis(4-fluorobenzyl)imidazo[2,1-b]thiazol-6(5H)-one], in series [1] (dose 1 mg/kg p.o.), the inhibition in vivo at 1 mg/kg worked out at 56.1%. `O=C1N=C2SC=CN2C1(Cc1ccccc1)Cc1ccccc1` [compound 2, 5,5-dibenzylimidazo[2,1-b]thiazol-6(5H)-one]: the melting point is > 300 °C. In addition, the inhibition in vivo at 0.01 mg/kg in series [1] (dose 0.01 mg/kg p.o.) amounted to 86.9%. For `O=C1N=C2N=CC=CN2C1(Cc1ccccc1)Cc1ccccc1` [compound 3, 3,3-dibenzylimidazo[1,2-a]pyrimidin-2(3H)-one], the melting point was > 300 °C. Also, in series [1] (dose 0.01 mg/kg p.o.), the inhibition in vivo at 0.01 mg/kg was 60.3%. For `Cc1ccc(CC2(Cc3ccc(C)cc3)C(=O)N=C3SC=CN32)cc1` [compound 4, 5,5-bis(4-methylbenzyl)imidazo[2,1-b]thiazol-6(5H)-one] the same measures were > 300 °C and 49.8%.

With `N#Cc1ccc(CC2(Cc3ccc(C#N)cc3)C(=O)N=C3SC=CN32)cc1` [compound 5, 5,5-bis(4-cyanobenzyl)imidazo[2,1-b]thiazol-6(5H)-one], the melting point fell in the range of 264 to 267 °C. Besides, the inhibition in vivo at 0.01 mg/kg in series [1] (dose 0.01 mg/kg p.o.) turned out to be 49.6%. On to `CC1=CN2C(=NC(=O)C2(Cc2ccccc2)Cc2ccccc2)S1` [compound 6, 5,5-dibenzyl-2-methylimidazo[2,1-b]thiazol-6(5H)-one], for which the melting point was > 300 °C. Also, the inhibition in vivo at 0.01 mg/kg in series [1] (dose 0.01 mg/kg p.o.) came to 66.6%. Consider `O=C1N=C2SC=CN2C1(Cc1cccs1)Cc1cccs1` [compound 7, 5,5-bis(2-thienylmethyl)imidazo[2,1-b]thiazol-6(5H)-one], for which the melting point was 286 °C (dec.). Regarding `O=C1N=C2N=CC=CN2C1(Cc1cccs1)Cc1cccs1` [compound 8, 3,3-bis(2-thienylmethyl)imidazo[1,2-a]pyrimidin-2(3H)-one], the melting point was 192 °C (dec.). Moreover, the inhibition in vivo at 0.01 mg/kg in series [1] (dose 0.01 mg/kg p.o.) came to 58.9%. With `O=C1N=C2SCCN2C1(Cc1ccccc1)Cc1ccccc1` [compound 9, 5,5-dibenzyl-2,3-dihydroimidazo[2,1-b]thiazol-6(5H)-one], the melting point is 233 to 236 °C. The inhibition in vivo at 0.01 mg/kg in series [1] (dose 0.01 mg/kg p.o.) was determined as 86.6%. In the case of `Oc1nc2ccccn2c1Cc1ccc2ccccc2c1` [compound 10, 2-hydroxy-3-(2-naphtylmethyl)imidazo[1,2-a]pyridin], the “Inhibitory rate (%)” value in series [1] (dose 0.01 mg/kg p.o.) is given as 40.8* %. Consider `O=C1N=C2C=CC=CN2C12Cc1cc3ccccc3cc1C2` [compound 11, spiro[imidazo[1,2-a]pyridin-2(3H)-one-3,2′-benzo[f]-indan]], for which the “Inhibitory rate (%)” value in series [1] (dose 0.01 mg/kg p.o.) is 80.4** %. As for `O=C1N=C2CCCCN2C1(C1CCCCC1)C1CCCCC1` [compound 12, 3,3-dicyclohexyl-5,6,7,8-tetrahydroimidazo[1,2-a]-pyridin-2(3H)-one], the melting point lay in the range of 218 to 220 °C. Also, the inhibition in vivo at 0.01 mg/kg in series [1] (dose 0.01 mg/kg p.o.) came out at 53.5%. In the case of `CCCCC1(CCCC)C(=O)N=C2CCCCN21` [compound 13, 3,3-dibutyl-5,6,7,8-tetrahydroimidazo[1,2-a]pyridin-2 (3H)-one], the melting point is 35 to 40 °C. In series [1] (dose 1 mg/kg p.o.), the inhibition in vivo at 1 mg/kg was determined as 49.6%. In the case of `O=C1N=C2C=CC=CN2C1Cc1ccccc1` (centres unmarked) [compound 14, 3-benzylimidazo[1,2-a]pyridin-2(3H)-one], the melting point was 182 °C (dec.). In addition, the inhibition in vivo at 0.01 mg/kg in series [1] (dose 0.01 mg/kg p.o.) came out at 53.6%. In the case of `CCCC1(CCC)C(=O)N=C2CCCCN21` [compound 15, 3,3-dipropyl-5,6,7,8-tetrahydroimidazo[1,2-a]pyridin-2(3H)-one], the inhibition in vivo at 1 mg/kg in series [1] (dose 1 mg/kg p.o.) stood at 61.5%.

For the compound `CN1C=NC(Cc2ccccc2)(Cc2ccccc2)C1=O` [compound 16, 4,4-dibenzyl-1-methyl-5-oxo-4,5-dihydroimidazol], the inhibition in vivo at 0.01 mg/kg in series [1] (dose 0.01 mg/kg p.o.) was 73.3%.

As to `CC=CCC1(CC=CC)C(=O)N=C2N=CC=CN21` (centres unmarked) [compound 17, 3,3-di(2-butenyl)imidazo[1,2-a]pyrimidin-2(3H)-one], the melting point is 149.5 °C (dec.). The inhibition in vivo at 0.01 mg/kg in series [1] (dose 0.01 mg/kg p.o.) amounted to 54.4%. For `O=C1N=C2C=CC=CN2C12Cc1cccc(F)c1C2` (centres unmarked) [compound 18, spiro[imidazo[1,2-a]pyridin-2(3H)-one-3,2′-(4′-fluoroindan)]], the “Inhibitory rate (%)” value in series [1] (dose 0.01 mg/kg p.o.) is listed as 90.3** %. `COc1ccc2c(c1)CC1(C2)C(=O)N=C2C=CC=CN21` (centres unmarked) [compound 19, spiro[imidazo[1,2-a]pyridin-2(3H)-one-3,2′-(5′-methoxyindan)]]: the “Inhibitory rate (%)” value in series [1] (dose 1 mg/kg p.o.) is recorded as 83.4** %. `O=C1N=C2C=CC=CN2C12Cc1ccc(I)cc1C2` (centres unmarked) [compound 20, spiro[imidazo[1,2-a]pyridin-2(3H)-one-3,2′-(5′-iodoindan)]]: the “Inhibitory rate (%)” value in series [1] (dose 1 mg/kg p.o.) is 72.4** %. The same measure, in the same setting: in the case of `N#Cc1cccc2c1CC1(C2)C(=O)N=C2C=CC=CN21` (centres unmarked) [compound 21, spiro[imidazo[1,2-a]pyridin-2(3H)-one-3,2′-(4′-cyanoindan)]] it was 52.4* %. With `O=C1N=C2c3ccccc3C=CN2C12Cc1ccccc1C2` [compound 22, spiro[imidazo[2,1-a]isoquinolin-2(3H)-one-3,2′-indan]], the “Inhibitory rate (%)” value in series [1] (dose 0.01 mg/kg p.o.) is given as 76.5** %. Same read-out and setting: the result for `O=C1N=C2C=CC=CN2C12Cc1cc3nsnc3cc1C2` [compound 23, spiro[imidazo[1,2-a]pyridin-2(3H)-one-3,2′-((1,2,5-thiadiazo)[4,5-c]indan)]] reads 88.2** %. In the case of `O=C1N=C2N=CC=CN2C12Cc1ccccc1C2` [compound 25, spiro[imidazo[1,2-a]pyrimidin-2(3H)-one-3,2′-indan]], the “Inhibitory rate (%)” value in series [1] (dose 1 mg/kg p.o.) is recorded as 78.3* %. With `O=C1N=C2C=CC=CN2C12Cc1ccc(C(F)(F)F)cc1C2` (centres unmarked) [compound 26, spiro[imidazo[1,2-a]pyridin-2(3H)-one-3,2′-(5′-trifluoromethylindan)]], the “Inhibitory rate (%)” value in series [1] (dose 1 mg/kg p.o.) is 74.3** %. For `O=C1N=C2C=CC=CN2C12Cc1ccc3ccccc3c1C2` (centres unmarked) [compound 27, spiro[imidazo[1,2-a]pyridin-2(3H)-one-3,2′-benzo[e]-indan]], the “Inhibitory rate (%)” value in series [1] (dose 1 mg/kg p.o.) is on record as 64.9** %. For the compound `O=C1N=C2c3ccccc3C=CN2C12CC=CC2` [compound 28, spiro[imidazo[2,1-a]isoquinolin-2 (3H)-one-3,1′-(3′-cyclopentene)]], in series [1] (dose 0.01 mg/kg p.o.), the “Inhibitory rate (%)” value is 88.0** %. Consider `O=C1N=C2C(OCc3ccccc3)=CC=CN2C12CC=CC2` [compound 29, spiro[8-benzyloxyimidazo[1,2-a]pyridin-2(3H)-one-3,1′-(3′-cyclopentene)]], for which the “Inhibitory rate (%)” value in series [1] (dose 1 mg/kg p.o.) is on record as 87.7** %. In the case of `O=C1N=C2C3=C(C=CN2C12CCCC2)CCCC3` [compound 30, spiro[7,8,9,10-tetrahydroimidazo[2,1-a]isoquinolin-2(3H)-one-3,1′-cyclopentane]], the “Inhibitory rate (%)” value in series [1] (dose 1 mg/kg p.o.) was 89.5** %. `O=C1N=C2c3ccccc3C=CN2C12CCCC2` [compound 31, spiro[imidazo[2,1-a]isoquinolin-2(3H)-one-3,1′-cyclopentane]]: in series [1] (dose 0.01 mg/kg p.o.), the “Inhibitory rate (%)” value was 56.7* %. As to `O=C1N=C2CCCCN2C12Cc1cc3ccccc3cc1C2` [compound 32, spiro[5,6,7,8-tetrahydroimidazo[1,2-a]pyridin-2(3H)-one-3,2′-benzo[f]indan]], the “Inhibitory rate (%)” value in series [1] (dose 0.01 mg/kg p.o.) was 61.4* %.

For `O=C1N=C2CCCCN2C12Cc1ccccc1C2` [compound 33, spiro[5,6,7,8-tetrahydroimidazo[1,2-a]pyridin-2(3H)-one-3,2′-indan]], in series [1] (dose 0.01 mg/kg p.o.), the “Inhibitory rate (%)” value is on record as 66.1** %.

In the case of `O=C1N(c2ccccc2)c2ccccc2C1(Cc1ccncc1)Cc1ccncc1` [compound A, 3,3-bis(4-pyridylmethyl)-1-phenylindolin-2-one, reference compound], the inhibition in vivo at 0.01 mg/kg in series [1] (dose 0.01 mg/kg p.o.) stood at 8.8%. In series [1] (dose 1 mg/kg p.o.), the inhibition in vivo at 1 mg/kg came to 20.9%. Turning to `Nc1c2c(nc3ccccc13)CCCC2` [compound B, 9-amino-1,2,3,4-tetrahydro-acridine, reference compound], the inhibition in vivo at 0.01 mg/kg in series [1] (dose 0.01 mg/kg p.o.) was found to be 24.1%. The inhibition in vivo at 1 mg/kg in series [1] (dose 1 mg/kg p.o.) amounted to 54.9%. As for “spiro[imidazo[2,1-a]isoquinolin-2(3H)-one-3,21-(1,2,5-thiadiazo)[4,5-c]indan)] [compound 24]”, the “Inhibitory rate (%)” value in series [1] (dose 0.01 mg/kg p.o.) was 97.1** %.

(Values after patent US7767824B2, “Heterocyclic compounds and cerebral function improvers containing the same as the active ingredient” (Zenyaku Kogyo Kabushiki Kaisha, priority 2001, dated 2010).)
